Laboratory results published in ChEMBL document CHEMBL3507680, “University of Dundee, Gates Library screen for HepG2 cell viability”.

Assay: Human HepG2 cell viability assay in 384 well format
Type: toxicity, cell-based
Parameters: dose 125 nL, time 70.5 hour; concentration not given beside the values
Conditions: HepG2 cells, read-out: Inhibition

| Structure (SMILES) | cytotoxicity at 70.5 h |
| --- | --- |
| O=C(NCc1cn2c(n1)CN(Cc1ccncc1)CC2)C1CCC1 | 8.23% |
| COc1ccccc1OC1CCN(c2nc(N)nc3[nH]cnc23)CC1 | 2.92% |
| CC(C)NC(=O)N1CCc2ncc(CN3CCOCC3)n2CC1 | -1.87% |
| O=C(O)c1ccc(S(=O)(=O)Nc2cnn(CC(F)(F)F)c2)cc1 | 3.28% |
| CC(C)NC(=O)Nc1cccc2c1CCN(S(C)(=O)=O)C2 | -1.67% |
| CCc1nc(C2CCCN2c2ncc(C(N)=O)cc2Cl)no1 (stereo not drawn) | 3.61% |
| Cn1ccnc1CN1CCC2(CC1)CN(c1ccccn1)CCO2 | 8.31% |
| CCOCC(=O)Nc1ncn(Cc2cccc(Br)c2)n1 | 17.2% |
| N#Cc1nc(COc2ccc3c(c2)OCO3)oc1NC1CC1 | -28.4% |
| CCc1ccc(CN2CCCCC2c2n[nH]cc2-c2cc(C)no2)cc1 (stereo not drawn) | -5.56% |
| Cc1ccsc1C(=O)N1CC[C@H]2CO[C@H](CN(C)C)[C@H]2C1 | -6.98% |
| CC(C)C(=O)N1CCc2onc(C(=O)NCCN(C)C)c2C1 | -5.11% |
| CN(CCO)C[C@@H]1CN(C(=O)Cc2ccc3ccccc3c2)C[C@@H]1CO | -4.17% |
| COCCN1CCCC(C)(c2cc(O)[nH]n2)C1 (stereo not drawn) | 1.15% |
| CCn1cc(Cl)c(C(=O)NCCCN(C)C)n1 | -7.78% |
| c1nc(N2CCCC2Cn2cncn2)c2sccc2n1 (stereo not drawn) | -4.84% |
| COC(C)c1noc(CN(C)c2ncccn2)n1 (stereo not drawn) | -1.92% |
| COc1ccc(OCC(=O)NC(C)c2ccc(F)cc2)c(C(=O)O)c1 (stereo not drawn) | -7% |
| CN1CC(c2ccccc2)CC12CCN(C(=O)c1ccc(Cl)cc1)CC2 (stereo not drawn) | 7.42% |
| Cc1cnc(CNc2c(F)cccc2-n2cccn2)o1 | 7.74% |
| CCCc1cc(NC2CCc3nc(C)nn3C2)n2ncnc2n1 (stereo not drawn) | -112% |
| O=C(NCCCc1ccco1)c1ccc(N2CCOCC2)cc1 | 4.57% |
| CN(CCc1ccccc1)Cc1cc(C(=O)N2CCN(C)C(=O)C2)no1 | -14.7% |

| Structure (SMILES) | cytotoxicity at 70.5 h |
| --- | --- |
| CC(C(=O)NC1CC1)S(=O)(=O)c1cc2c(cc1Cl)OCCO2 (stereo not drawn) | -8.64% |
| COc1cccc(COCC(=O)N2CCC(CC(N)=O)CC2)c1 | 4.02% |
| Cc1n[nH]c(CN2CCN(c3ncnc4scc(C)c34)CC2)c1Cl | -8.15% |
| COc1ccccc1OCCC(=O)N1CCCC1Cn1cc(C)cn1 (stereo not drawn) | -6.74% |
| CCN1CCN(C(=O)COc2ccc(CN(C)S(C)(=O)=O)cc2)CC1 | -3.87% |
| Cn1nccc1C1CCN(CC(=O)NCC2CC2)CC1 | -8.55% |
| Cn1ccnc1-c1noc(NCc2ccc(Br)cc2)n1 | -7.73% |
| C[S+]([O-])CCCNCc1cc(F)ccc1Br (stereo not drawn) | 0.821% |
| CNCC(=O)N1CCC(c2cccc(Oc3ccccc3)n2)CC1 | -7.76% |
| Cc1nc(N)c2ccc(C3CCCCN3)nc2n1 (stereo not drawn) | -1.97% |
| COc1ccc(C(=O)C2CCCN(c3cc(C#N)ccn3)C2)cc1F (stereo not drawn) | -6.04% |
| CCN(CC)C(=O)CN1CCc2nc(C3CCNCC3)nc(NC)c2C1 | -4.13% |
| Cc1cccc(CNC[C@H]2Cn3ccnc3CO2)n1 | -1.57% |
| O=C(Cc1cccc(F)c1)N1CCCCC1c1ccn2ccnc2n1 (stereo not drawn) | 29.6% |
| CC(=O)c1cc(C(=O)NC2(c3ccc(Br)cc3)CC2)n(C)c1 | -3.42% |
| Cn1cc(NC(=O)Cn2cc(-c3ccccc3)ncc2=O)cn1 | 19.6% |
| CCn1nc(C)c(C(C)Nc2cc(C3CCNCC3)nc(C)n2)c1C (stereo not drawn) | -23.1% |
| CC(C)(C)n1ncc2c(=O)[nH]c(N3CC(O)C3)nc21 | 0.684% |
| CCc1cc(C(=O)N[C@@H]2CC[C@@H](N3CCOCC3)[C@@H]2O)no1 | -4.39% |
| COCc1ccc(C(=O)N2CCN(CCS(C)(=O)=O)CC2)cc1 | -10.7% |
| CC(C)(C)N1CCN(C(=O)c2cccnc2-n2cncn2)CC1 | 0.2% |
| O=C(c1ccnnc1)N1CCC2(CCN(c3ccsc3)C2=O)C1 (stereo not drawn) | -0.84% |
| Cc1cc(C)n(C2CCCN(C(=O)CN(C)c3cnccn3)C2)n1 (stereo not drawn) | -0.822% |

| Structure (SMILES) | cytotoxicity at 70.5 h |
| --- | --- |
| CC(C)c1cc(C(=O)N(C)Cc2cccc3ncccc23)n(C)n1 | -3.18% |
| CCO[C@H]1CN(CC2CCOCC2)[C@@H]2CCCO[C@H]12 | 9.78% |
| CC(C)S(=O)(=O)N1CCC(c2cc3n(n2)[C@@H](C(F)(F)F)C[C@@H](C)N3)CC1 | -7.62% |
| CCCc1nnc2sc(C3CCN(CC)CC3)nn12 | -13.4% |
| CSCCCN1CCCC1c1noc(C(C)C)n1 (stereo not drawn) | -0.353% |
| Cn1ccc(CN2CCC(COC3CCCC3)CC2)cc1=O | -11% |
| O=c1[nH]c(N2CCCCC2)nc2c1CCN(Cc1cccnc1)C2 | -6.55% |
| O=C(c1ccccc1)N1CC[C@H]2C[C@H](c3nnc(C4CC4)o3)O[C@@H]2C1 | -9.97% |
| Cc1cc2nc(SCC(=O)N3CCCC3)n(-c3ccccc3)c(=O)c2[nH]1 | -21.9% |
| O=C(CCn1c(C(F)(F)F)cc2cccnc21)N1CCCC1 | -0.515% |
| Cc1ccn(-c2ccc(NCc3ccnc(N4CCCCC4)c3)nn2)n1 | -10.5% |
| Cc1noc(C)c1C(=O)N(C)Cc1nc(-c2ccccn2)no1 | -1.56% |
| Cc1cc(C)nc(C2CCN(C(=O)CCn3nnc4ccccc43)C2)n1 (stereo not drawn) | -6.12% |
| CC(C)NC(=O)[C@H]1CCS(=O)(=O)[C@@H]2CN(c3ncc(F)cn3)C[C@H]12 | -2.87% |
| CC1c2ncc(Cn3cccn3)n2CCN1Cc1ccccn1 (stereo not drawn) | -1.75% |
| CCN(CC)c1ncnc2c1CCN(CC1CCOCC1)CC2 | -16.3% |
| CS(=O)(=O)N1CCC2(CC1)CC(NCC1CC1)c1ccccc12 (stereo not drawn) | -7.3% |
| Cc1oc(C(=O)O)cc1S(=O)(=O)Nc1ccc(Cl)c(Cl)c1 | -3.75% |
| Cn1c(SCC(N)=O)nnc1-c1csc2c1CCCC2 | -9.11% |
| Cc1ccc(F)c(C(=O)N2CCC(Nc3ccc(C)nn3)CC2)c1 | -2.35% |
| CN(C)S(=O)(=O)N1CCC2(COCc3cnc(-c4ccccc4)nc32)C1 (stereo not drawn) | -23.1% |
| Cc1nc(-c2ccsc2)ccc1C(=O)N1CCn2c(C)nnc2C1 | 11.2% |
| Cc1ccc(NC2CCN(C(=O)c3cccn3C)CC2)nn1 | 32.5% |

| Structure (SMILES) | cytotoxicity at 70.5 h |
| --- | --- |
| c1cn(-c2cnc(C3CCCNC3)cn2)cn1 (stereo not drawn) | 22.8% |
| CCCS(=O)(=O)N1CCCC(c2cccc(C(=O)O)c2)C1 (stereo not drawn) | -9.39% |
| COc1ccc(C[C@H]2CN(c3cc(OC)ncn3)CC[C@@H]2OC)cc1 | 4.78% |
| O=C(O)CCN(Cc1ccc(F)c(F)c1)C(=O)C1CC1 | -11.3% |
| O=C(NCc1cccnc1)[C@@H]1CC[C@@H]2[C@@H](CCN2c2ncccn2)O1 | 15.1% |
| Cc1nn(C)c(N2CCOCC2)c1CNC(c1ccccc1)C1CC1 (stereo not drawn) | 11.3% |
| COc1ccc(CN2CCC3(CC2)CC(CC(=O)NC(C)C)CO3)cc1 (stereo not drawn) | -14.4% |
| Cc1nn(C)c2cnn(CCCNS(=O)(=O)Cc3ccccc3)c12 | 10.4% |
| O=C1CN(Cc2occc2C(=O)NCCc2ccc(F)cc2)CCN1 | 2.4% |
| CC(=O)c1ccc(N2CCN(C(=O)c3cc(C(C)C)nn3C)CC2)cc1 | -14.7% |
| O=C(c1cn(-c2ccccc2)nn1)N1CCOCC(O)C1 (stereo not drawn) | 15.7% |
| CSc1ccccc1C(=O)N1CCOC(CCN(C)C)C1 (stereo not drawn) | -15.3% |
| O=C(NCc1ccccc1F)Nc1ccn(CCN2CCOCC2)n1 | -15.3% |
| N#Cc1c(Cl)nsc1NCc1cccnc1OC1CCCC1 | -94.1% |
| Cc1nc(CCCNC(=O)C2CC(=O)N(C(C)(C)C)C2)sc1C (stereo not drawn) | -7.69% |
| Cc1cc(C)n(C2CCCN(C(=O)c3ccc4c(c3)COC4)C2)n1 (stereo not drawn) | 1.09% |
| COc1ccccc1C(C)(C)NC(=O)NC1CCC(O)CC1 (stereo not drawn) | -15.4% |
| O=C(c1ccc2nccnc2c1)N1C[C@@H](CN2CCCC2)[C@@H](CO)C1 | -5.28% |
| CN(C)C(=O)CNC(=O)c1cc(Br)c2c(c1)OCCO2 | -3.47% |
| O=C(NCc1cn2cccnc2n1)C1CC(=O)N(Cc2cccnc2)C1 (stereo not drawn) | 2.43% |
| Cc1csc(CN2CCC3(CC2)COC(COCC2CC2)C3)n1 (stereo not drawn) | -0.893% |
| O=C(NCc1cccnc1N1CCCCC1)c1ccc2cc[nH]c2c1 | -15.2% |
| O=C1CCCc2[nH]c(=O)c(C(=O)N(CC3CCCCC3)C3CC3)cc21 | -7.98% |

| Structure (SMILES) | cytotoxicity at 70.5 h |
| --- | --- |
| CCCc1noc(CS(=O)(=O)c2cccc(OC)c2)n1 | -5.69% |
| CC(NCCCc1cnn(C)c1)c1ccc(Br)s1 (stereo not drawn) | -1.02% |
| C[C@H](CCO)NS(=O)(=O)c1ccc(Br)cn1 | -6.95% |
| Cc1nc(CN2CCCC23CCN(c2nc4ccccc4s2)CC3)co1 | -12.9% |
| CS(=O)(=O)NC1CCN(C(=O)NCc2cccnc2)CC1 | 2.6% |
| COc1ccc(Cl)cc1S(=O)(=O)N(C)CC(=O)Nc1ccon1 | -12% |
| CNC(=O)[C@@H]1[C@@H](OC(=O)Nc2ccccc2)C(=O)N(C)C12CCNCC2 | -2.76% |
| CCOC(=O)C1CCN(C(=O)CN2CCCC2c2ccsc2)CC1 (stereo not drawn) | -3.85% |
| Cc1csc2ncnc(N3CCC(Cn4cc(C(C)(C)N)nn4)CC3)c12 | 2.54% |
| COc1ccccc1Oc1ncccc1CNC(=O)C1COC(=O)N1 (stereo not drawn) | -14.6% |
| CCN(Cc1ccc2c(c1)OCO2)c1ncc(S(N)(=O)=O)s1 | 1.59% |
| Cc1ccc(C(=O)Nc2ccc(N3CCCC3)cn2)cc1C | 0.417% |
| Cc1noc(C)c1CCNc1nccc(CCC(F)(F)F)n1 | -8.75% |
| CCc1ccc(C(=O)NCCCC2(C3OCCO3)CCOCC2)cc1 | 11.6% |
| CC(C)(C)C(=O)Nc1ccc(Oc2ccsc2C(=O)O)cc1 | 1.54% |
| c1cc(CN2CCSC3(CCCCC3)C2)no1 | -1.3% |
| O=C(Cc1ccc(F)c(F)c1)NC1COc2ccccc2C1=O (stereo not drawn) | -0.695% |
| CN1CCc2c(NC(=O)NCc3ccccc3Cl)cccc21 | -1.74% |
| O=C(CN1CC(c2nc(C3CC3)no2)C1)NCc1ccc(F)cc1 | -4.69% |
| CCOCC1CN(Cc2ccc(OC)cc2)Cc2nn(CC3CC3)cc21 (stereo not drawn) | -5.83% |
| CN(C)C(=O)CO[C@H]1CO[C@@]2(CCN(S(C)(=O)=O)C2)C1 | -6.98% |
